Reference: PMC5725799, “Comparative binding properties of the tau PET tracers THK5117, THK5351, PBB3, and T807 in postmortem Alzheimer brains” (Alzheimer's Research & Therapy, 2017)

System: tau
Experiment: ^11C-PBB3 autoradiography and competition on large frozen AD brain sections
Assay type: binding, human
Parameters: NSP Binding: unit not given here
Procedure: Adjacent sections were used for autoradiography with ^11C-THK5351, ^11C-PBB3, and ^18F-T807. The frozen sections were allowed to reach room temperature, incubated for 30 minutes at room temperature with ^11C-THK5351 (0.4–0.56 nM; […]; specific activity 442–794 GBq/μmol) or for 55 minutes at room temperature with ^18F-T807 (0.04 nM; specific activity 281 GBq/μmol). We used 10 μM unlabeled THK5351, 10 μM unlabeled PBB3, and 10 μM unlabeled T807 to determine the extent of nonspecific binding for each tracer. The sections were rinsed three times for 5 minutes each with cold binding buffer, followed by a quick dip in cold distilled water. The sections were dried and exposed for 1 h (for ^11C-THK5351 and ^11C-PBB3) or for 3 h (^18 F-T807) on a phosphor imaging plate and then read using the BAS-2500 phosphor imager.
For all the autoradiography studies, the regions of interest were drawn manually on the autoradiogram using multigauge software and were used for the semiquantitative analyses. Photostimulated luminescence per square millimeter (PSL/mm^2) was transformed to picomoles per cubic millimeter using a transformation factor that took into account the resolution of the image, the pixel value for the concentration of ligand, and the thickness of the sections: (PSL/mm^2 value)/([pixel value per pmol] × [(resolution/1000)^2] × [cryosection thickness]/1000).

[1] = AD1, Basal ganglia, vs Unlabelled PBB3
[2] = AD1, Basal ganglia, vs Unlabelled T807
[3] = AD1, Frontal cortex, vs Unlabelled PBB3
[4] = AD1, Frontal cortex, vs Unlabelled T807
[5] = AD1, Frontal cortex, vs Unlabelled THK5351
[6] = AD1, Insula, vs Unlabelled PBB3
[7] = AD1, Insula, vs Unlabelled T807
[8] = AD1, Temporal cortex, vs Unlabelled PBB3
[9] = AD1, Temporal cortex, vs Unlabelled T807
[10] = AD1, Temporal cortex, vs Unlabelled THK5351
[11] = AD2, Basal ganglia, vs Unlabelled PBB3
[12] = AD2, Basal ganglia, vs Unlabelled T807
[13] = AD2, Basal ganglia, vs Unlabelled THK5351
[14] = AD2, Frontal cortex, vs Unlabelled PBB3
[15] = AD2, Frontal cortex, vs Unlabelled T807
[16] = AD2, Frontal cortex, vs Unlabelled THK5351
[17] = AD2, Insula, vs Unlabelled PBB3
[18] = AD2, Insula, vs Unlabelled T807
[19] = AD2, Insula, vs Unlabelled THK5351
[20] = AD2, Temporal cortex, vs Unlabelled PBB3
[21] = AD2, Temporal cortex, vs Unlabelled T807
[22] = AD2, Temporal cortex, vs Unlabelled THK5351
[23] = AD3, Basal ganglia, vs Unlabelled PBB3
[24] = AD3, Basal ganglia, vs Unlabelled T807
[25] = AD3, Basal ganglia, vs Unlabelled THK5351
[26] = AD3, Frontal cortex, vs Unlabelled PBB3
[27] = AD3, Frontal cortex, vs Unlabelled T807
[28] = AD3, Frontal cortex, vs Unlabelled THK5351
[29] = AD3, Insula, vs Unlabelled PBB3
[30] = AD3, Insula, vs Unlabelled T807
[31] = AD3, Insula, vs Unlabelled THK5351
[32] = AD3, Temporal cortex, vs Unlabelled PBB3
[33] = AD3, Temporal cortex, vs Unlabelled T807
[34] = AD3, Temporal cortex, vs Unlabelled THK5351

Compound: [11CH3]Nc1ccc(/C=C/C=C/c2nc3ccc(O)cc3s2)cn1 [^11C-PBB3, (5-((1E,3E)-4-(6-[^11C]methylamino)pyridin-3-yl)buta-1,3-dien-1-yl)benzo[d]thiazol-6-ol]
- % of specific binding [1]: 50%
- NSP Binding [1]: 2849
- Specific Binding [1]: 2796
- Total Binding [1]: 5645
- % of specific binding [2]: 20%
- NSP Binding [2]: 3201
- Specific Binding [2]: 802
- Total Binding [2]: 4004
- % of specific binding [3]: 51%
- NSP Binding [3]: 3317
- Specific Binding [3]: 3433
- Total Binding [3]: 6750
- % of specific binding [4]: 17%
- NSP Binding [4]: 3919
- Specific Binding [4]: 782
- Total Binding [4]: 4701
- % of specific binding [5]: 22%
- NSP Binding [5]: 1579
- Specific Binding [5]: 439
- Total Binding [5]: 2018
- % of specific binding [6]: 45%
- NSP Binding [6]: 3353
- Specific Binding [6]: 2690
- Total Binding [6]: 6043
- % of specific binding [7]: 13%
- NSP Binding [7]: 3842
- Specific Binding [7]: 566
- Total Binding [7]: 4409
- % of specific binding [8]: 41%
- NSP Binding [8]: 3425
- Specific Binding [8]: 2352
- Total Binding [8]: 5777
- % of specific binding [9]: 4%
- NSP Binding [9]: 4009
- Specific Binding [9]: 178
- Total Binding [9]: 4187
- % of specific binding [10]: 28%
- NSP Binding [10]: 1569
- Specific Binding [10]: 596
- Total Binding [10]: 2164
- % of specific binding [11]: 47%
- NSP Binding [11]: 3052
- Specific Binding [11]: 2700
- Total Binding [11]: 5752
- % of specific binding [12]: 21%
- NSP Binding [12]: 2790
- Specific Binding [12]: 751
- Total Binding [12]: 3541
- % of specific binding [13]: 19%
- NSP Binding [13]: 1517
- Specific Binding [13]: 367
- Total Binding [13]: 1884
- % of specific binding [14]: 51%
- NSP Binding [14]: 3051
- Specific Binding [14]: 3187
- Total Binding [14]: 6238
- % of specific binding [15]: 15%
- NSP Binding [15]: 3252
- Specific Binding [15]: 595
- Total Binding [15]: 3847
- % of specific binding [16]: 17%
- NSP Binding [16]: 1619
- Specific Binding [16]: 341
- Total Binding [16]: 1960
- % of specific binding [17]: 48%
- NSP Binding [17]: 3100
- Specific Binding [17]: 2827
- Total Binding [17]: 5927
- % of specific binding [18]: 21%
- NSP Binding [18]: 2838
- Specific Binding [18]: 748
- Total Binding [18]: 3585
- % of specific binding [19]: 20%
- NSP Binding [19]: 1580
- Specific Binding [19]: 400
- Total Binding [19]: 1979
- % of specific binding [20]: 59%
- NSP Binding [20]: 2988
- Specific Binding [20]: 4222
- Total Binding [20]: 7210
- % of specific binding [21]: 12%
- NSP Binding [21]: 3425
- Specific Binding [21]: 448
- Total Binding [21]: 3874
- % of specific binding [22]: 36%
- NSP Binding [22]: 1506
- Specific Binding [22]: 831
- Total Binding [22]: 2336
- % of specific binding [23]: 48%
- NSP Binding [23]: 2989
- Specific Binding [23]: 2786
- Total Binding [23]: 5775
- % of specific binding [24]: 13%
- NSP Binding [24]: 2721
- Specific Binding [24]: 422
- Total Binding [24]: 3143
- % of specific binding [25]: 23%
- NSP Binding [25]: 1577
- Specific Binding [25]: 481
- Total Binding [25]: 2058
- % of specific binding [26]: 56%
- NSP Binding [26]: 3132
- Specific Binding [26]: 4039
- Total Binding [26]: 7171
- % of specific binding [27]: 21%
- NSP Binding [27]: 3247
- Specific Binding [27]: 879
- Total Binding [27]: 4125
- % of specific binding [28]: 27%
- NSP Binding [28]: 1832
- Specific Binding [28]: 678
- Total Binding [28]: 2511
- % of specific binding [29]: 46%
- NSP Binding [29]: 3401
- Specific Binding [29]: 2848
- Total Binding [29]: 6249
- % of specific binding [30]: 8%
- NSP Binding [30]: 3261
- Specific Binding [30]: 294
- Total Binding [30]: 3555
- % of specific binding [31]: 18%
- NSP Binding [31]: 1815
- Specific Binding [31]: 405
- Total Binding [31]: 2220
- Total Binding (AD3, Temporal cortex, 0.4nM): 6400 pmol/mm^3
- % of specific binding [32]: 50%
- NSP Binding [32]: 3203
- Specific Binding [32]: 3207
- Total Binding [32]: 6409
- % of specific binding [33]: 11%
- NSP Binding [33]: 3217
- Specific Binding [33]: 396
- Total Binding [33]: 3612
- % of specific binding [34]: 18%
- NSP Binding [34]: 1818
- Specific Binding [34]: 397
- Total Binding [34]: 2215
